Measured values: patent publication US8916702B2 (priority 2012, dated 2014)
pEC50: −log10 of the molar value.

tested on: HCV pseudoparticles (genotype 1a HCV E1 and E2 envelope, H77C isolate); experiment: microbe, parasite or virus in culture; format: cell-based; details: Hepatitis C virus, Huh-7, 48 h, HCV pseudoparticle infection of Huh7 cells, luciferase 2 days after infection; average of duplicates

| Compound | pEC50 |
| --- | --- |
| COC(=O)[C@H](CCNC(=O)C(=O)N(C)c1ccccc1)NC(=O)c1ccc(Nc2nc(NC3(c4ccc(Cl)cc4)CC3)nc(OCC(F)(F)F)n2)cc1 [Compound 1235] | 9.28 |

same assay, conditions: Hepatitis C virus, Huh-7, 48 h, HCV pseudoparticles (genotype 1a, H77C) in Huh7 cells; average of duplicate; luciferase 2 days after infection

| Compound | pEC50 |
| --- | --- |
| O=C(NCCCCNC(=O)c1ccc(Nc2nc(NC3(c4ccc(Cl)cc4)CC3)nc(OCC(F)(F)F)n2)cc1)C(=O)N1CCc2ccccc2C1 [Compound 3402] | 9.70 |
| COC(=O)[C@H](CNC(=O)C(=O)Nc1ccc(-n2nnnc2C)cc1)NC(=O)c1ccc(Nc2nc(NC3(c4ccc(Cl)cc4)CC3)nc(OCC(F)(F)F)n2)cc1 [Compound 3107] | 9.04 |
| O=C(NCCCCNC(=O)c1ccc(Nc2nc(NC3(c4ccc(Cl)cc4)CC3)nc(OCC(F)(F)F)n2)cc1)C(=O)Nc1ccc(F)cc1F [Compound 3397] | 10.09 |

same assay, conditions: Hepatitis C virus, Huh-7, 48 h, HCV pseudoparticles, Huh7 cells, luciferase 2 days after infection; average of duplicates

| Compound | pEC50 |
| --- | --- |
| O=C(NC[C@H](NC(=O)c1ccc(Nc2nc(NC3(c4ccc(Cl)cc4)CC3)nc(OCC(F)(F)F)n2)cc1)C(=O)O)C(=O)Nc1cccc(S(=O)(=O)N2CCCCC2)c1 [Compound 3772] | 8.13 |

same assay, conditions: Hepatitis C virus, Huh-7, 48 h, read-out: Activity (EC50 class), HCV pseudoparticle infection of Huh7 cells, luciferase 2 days after infection; EC50 expressed as class A/B

| Compound | pEC50 |
| --- | --- |
| CC(C)(CNC(=O)C(=O)Nc1ccc2ncoc2c1)CNC(=O)c1ccc(Nc2nc(NC3(c4ccc(Cl)cc4)CC3)nc(OCC(F)(F)F)n2)cc1 [Compound 1567] | 8.00 to 11.00 |
| O=C(NCC1CCOCC1)C(=O)NC[C@H](NC(=O)c1ccc(Nc2nc(NC3(c4ccc(Cl)cc4)CC3)nc(OCC(F)(F)F)n2)cc1)C(=O)O [Compound 1477] | 8.00 to 11.00 |
| COC(=O)[C@H](CNC(=O)C(=O)NCC1CCCCCC1)NC(=O)c1ccc(Nc2nc(NC3(c4ccc(Cl)cc4)CC3)nc(OCC(F)(F)F)n2)cc1 [Compound 1451] | 8.00 to 11.00 |
| CC(C)(CNC(=O)C(=O)Nc1ccc(C(=O)N2CCCCC2)cc1)CNC(=O)c1ccc(Nc2nc(NC3(c4ccc(Cl)cc4)CC3)nc(OCC(F)(F)F)n2)cc1 [Compound 1568] | 8.00 to 11.00 |
| CCOC(=O)[C@H](CNC(=O)C(=O)N(C)C)NC(=O)c1ccc(Nc2nc(NC3(c4ccc(Cl)cc4)CC3)nc(OCC(F)(F)F)n2)cc1 [Compound 1020, (S)-ethyl 2-(4-(4-(1-(4-chlorophenyl)cyclopropylamino)-6-(2,2,2-trifluoroethoxy)-1,3,5-triazin-2-ylamino)benzamido)-3-(2-(dimethylamino)-2-oxoacetamido)propanoate] | 8.00 to 11.00 |
| COC(=O)[C@H](CNC(=O)C(=O)NCc1ccc(OC)cc1)NC(=O)c1ccc(Nc2nc(NC3(c4ccc(Cl)cc4)CC3)nc(OCC(F)(F)F)n2)cc1 [Compound 1153] | 8.00 to 11.00 |
| CC(C)(C)OC(=O)NC1CCC(NC(=O)C(=O)NC[C@H](NC(=O)c2ccc(Nc3nc(NC4(c5ccc(Cl)cc5)CC4)nc(OCC(F)(F)F)n3)cc2)C(=O)O)CC1 (stereo partly shown) [Compound 1085] | 8.00 to 11.00 |
| O=C(NCC1(CNC(=O)c2ccc(Nc3nc(NC4(c5ccc(Cl)cc5)CC4)nc(OCC(F)(F)F)n3)cc2)CC1)C(=O)Nc1ccc(F)cc1 [Compound 1566] | 8.00 to 11.00 |
| CCCc1ccc(NC(=O)C(=O)NCC(C)(C)CNC(=O)c2ccc(Nc3nc(NC4(c5ccc(Cl)cc5)CC4)nc(OCC(F)(F)F)n3)cc2)cc1 [Compound 1573] | 8.00 to 11.00 |
| COC(=O)[C@H](CCNC(=O)C(=O)NC1CCC(O)CC1)NC(=O)c1ccc(Nc2nc(NC3(c4ccc(Cl)cc4)CC3)nc(OCC(F)(F)F)n2)cc1 (stereo partly shown) [Compound 1073] | 8.00 to 11.00 |
| COC(=O)[C@H](CCNC(=O)C(=O)NC1CCCC(O)C1)NC(=O)c1ccc(Nc2nc(NC3(c4ccc(Cl)cc4)CC3)nc(OCC(F)(F)F)n2)cc1 (stereo partly shown) [Compound 1070] | 8.00 to 11.00 |
| COC(=O)[C@H](CCNC(=O)C(=O)N(C)c1ccccc1)NC(=O)c1ccc(Nc2nc(NC3(c4ccc(Cl)cc4)CC3)nc(OCC(F)(F)F)n2)cc1 [Compound 1235] | 8.00 to 11.00 |
| CC(C)(Cc1ccc(F)cc1)NC(=O)C(=O)NCC(NC(=O)c1ccc(Nc2nc(NC3(c4ccc(Cl)cc4)CC3)nc(OCC(F)(F)F)n2)cc1)C(=O)O (stereo not shown) [Compound 1408] | 8.00 to 11.00 |
| COC(=O)[C@H](CCNC(=O)C(=O)NCc1ccccc1)NC(=O)c1ccc(Nc2nc(NC3(c4ccc(Cl)cc4)CC3)nc(OCC(F)(F)F)n2)cc1 [Compound 1142] | 8.00 to 11.00 |
| O=C(NCC1CCCCC1)C(=O)NC[C@@H](NC(=O)c1ccc(Nc2nc(NC3(c4ccc(Cl)cc4)CC3)nc(OCC(F)(F)F)n2)cc1)C(=O)O [Compound 1039] | 8.00 to 11.00 |
| COCC(NC(=O)C(=O)NCC[C@H](NC(=O)c1ccc(Nc2nc(NC3(c4ccc(Cl)cc4)CC3)nc(OCC(F)(F)F)n2)cc1)C(=O)O)C1CC1 (stereo partly shown) [Compound 1441] | 8.00 to 11.00 |
| COc1cccc(CNC(=O)C(=O)NCC[C@H](NC(=O)c2ccc(Nc3nc(NC4(c5ccc(Cl)cc5)CC4)nc(OCC(F)(F)F)n3)cc2)C(=O)O)c1 [Compound 1183] | 8.00 to 11.00 |
| COC(=O)[C@H](CNC(=O)C(=O)N[C@H](C)C1CCCCC1)NC(=O)c1ccc(Nc2nc(NC3(c4ccc(Cl)cc4)CC3)nc(OCC(F)(F)F)n2)cc1 [Compound 1455] | 8.00 to 11.00 |

same assay, conditions: Hepatitis C virus, Huh-7, 48 h, read-out: Activity (EC50 class), HCV pseudoparticles, Huh7 cells, luciferase 2 days after infection; average of duplicates

| Compound | pEC50 |
| --- | --- |
| CC(C)(CNC(=O)C(=O)Nc1nc2cccnc2s1)CNC(=O)c1ccc(Nc2nc(NC3(c4ccc(Cl)cc4)CC3)nc(OCC(F)(F)F)n2)cc1 [Compound 3811] | 8.00 to 11.00 |
| CC(C)(CNC(=O)C(=O)Nc1ccc(C#N)cc1)CNC(=O)c1ccc(Nc2nc(NC3(c4ccc(Cl)cc4)CC3)nc(OCc3ccc(OC(F)(F)F)cc3)n2)cc1 [Compound 3852] | 8.00 to 11.00 |
| O=C(NC[C@H](NC(=O)c1ccc(Nc2nc(NC3(c4ccc(Cl)cc4)CC3)nc(OCC(F)(F)F)n2)cc1)C(=O)O)C(=O)Nc1cccc(S(=O)(=O)N2CCCCC2)c1 [Compound 3772] | 8.00 to 11.00 |
| COC(=O)[C@H](CNC(=O)C(=O)Nc1cccc(-c2ccncc2)c1)NC(=O)c1ccc(Nc2nc(NC3(c4ccc(Cl)cc4)CC3)nc(OCC(F)(F)F)n2)cc1 [Compound 3712] | 8.00 to 11.00 |
| CC(=O)c1cccc(NC(=O)C(=O)NCC(C)(C)CNC(=O)c2ccc(Nc3nc(NC4(c5ccc(Cl)cc5)CC4)nc(OCC(F)(F)F)n3)cc2)c1 [Compound 3668] | 8.00 to 11.00 |
| COC(=O)[C@H](CNC(=O)C(=O)Nc1cccc(S(=O)(=O)c2ccccc2)c1)NC(=O)c1ccc(Nc2nc(NC3(c4ccc(Cl)cc4)CC3)nc(OCC(F)(F)F)n2)cc1 [Compound 3701] | 8.00 to 11.00 |
| Cc1cccc2sc(NC(=O)C(=O)NCC(C)(C)CNC(=O)c3ccc(Nc4nc(NC5(c6ccc(Cl)cc6)CC5)nc(OCC(F)(F)F)n4)cc3)nc12 [Compound 3805] | 8.00 to 11.00 |

same assay, conditions: Hepatitis C virus, Huh-7, read-out: Activity (EC50 class), HCV pseudoparticles (genotype 1a, H77C) in Huh7 cells; EC50 expressed as class A/B

| Compound | pEC50 |
| --- | --- |
| CC(C)(CNC(=O)C(=O)Nc1nncs1)CNC(=O)c1ccc(Nc2nc(NC3(c4ccc(Cl)cc4)CC3)nc(OCC(F)(F)F)n2)cc1 [Compound 3382] | 8.00 to 11.00 |
| COc1ccccc1NC(=O)C(=O)NCC(C)(C)CNC(=O)c1ccc(Nc2nc(NC3(c4ccc(Cl)cc4)CC3)nc(OCC(F)(F)F)n2)cc1 [Compound 3006] | 8.00 to 11.00 |
| O=C(NCCCCNC(=O)c1ccc(Nc2nc(NC3(c4ccc(Cl)cc4)CC3)nc(OCC(F)(F)F)n2)cc1)C(=O)N1CCc2ccccc2C1 [Compound 3402] | 8.00 to 11.00 |
| COC(=O)[C@H](CNC(=O)C(=O)Nc1ccc(-n2nnnc2C)cc1)NC(=O)c1ccc(Nc2nc(NC3(c4ccc(Cl)cc4)CC3)nc(OCC(F)(F)F)n2)cc1 [Compound 3107] | 8.00 to 11.00 |
| O=C(NCCCCNC(=O)c1ccc(Nc2nc(NC3(c4ccc(Cl)cc4)CC3)nc(OCC(F)(F)F)n2)cc1)C(=O)Nc1ccccc1 [Compound 3403] | 8.00 to 11.00 |
| COC(=O)[C@H](CNC(=O)C(=O)Nc1ccc(C)cc1)NC(=O)c1ccc(Nc2nc(NC3(c4ccc(Cl)cc4)CC3)nc(OCC(F)(F)F)n2)cc1 [Compound 3085] | 8.00 to 11.00 |
| COc1ccc(NC(=O)C(=O)NCC(C)(C)CNC(=O)c2ccc(Nc3nc(NC4(c5ccc(Cl)cc5)CC4)nc(OCC(F)(F)F)n3)cc2)c(C)c1 [Compound 3068] | 8.00 to 11.00 |
| CC(C)(CNC(=O)C(=O)Nc1cccc(C(=O)c2cccc(N)c2)c1)CNC(=O)c1ccc(Nc2nc(NC3(c4ccc(Cl)cc4)CC3)nc(OCC(F)(F)F)n2)cc1 [Compound 3400] | 8.00 to 11.00 |
| Cc1ccc(NC(=O)C(=O)NCCNC(=O)c2ccc(Nc3nc(NC4(c5ccc(Cl)cc5)CC4)nc(OCC(F)(F)F)n3)cc2)cc1 [Compound 3371] | 8.00 to 11.00 |
| Cc1noc2ccc(NC(=O)C(=O)NCC(C)(C)CNC(=O)c3ccc(Nc4nc(NC5(c6ccc(Cl)cc6)CC5)nc(OCC(F)(F)F)n4)cc3F)cc12 [Compound 3565] | 8.00 to 11.00 |
| CC(C)(CNC(=O)C(=O)Nc1ccc(F)cc1F)CNC(=O)c1ccc(Nc2nc(NC3(c4ccc(Cl)cc4)CC3)nc(OCC(F)(F)F)n2)cc1F [Compound 3555] | 8.00 to 11.00 |
| CC(C)(CNC(=O)C(N)=O)CNC(=O)c1ccc(Nc2nc(NC3(c4ccc(Cl)cc4)CC3)nc(OCC(F)(F)F)n2)c(F)c1 [Compound 3386] | 8.00 to 11.00 |
| O=C(NC[C@H](NC(=O)c1ccc(Nc2nc(NC3(c4ccc(Cl)cc4)CC3)nc(OCC(F)(F)F)n2)cc1)C(=O)O)C(=O)Nc1ccc(-c2ccno2)cc1 [Compound 3282] | 8.00 to 11.00 |
| NC(=O)c1ccc(NC(=O)C(=O)NC/C(=N/C(=O)c2ccc(Nc3nc(NC4(c5ccc(Cl)cc5)CC4)nc(OCC(F)(F)F)n3)cc2)C(=O)O)cc1 [Compound 3156] | 8.00 to 11.00 |
| COc1ccc(NC(=O)C(=O)NCC(C)(C)CNC(=O)c2ccc(Nc3nc(NC4(c5ccc(Cl)cc5)CC4)nc(OCC(F)(F)F)n3)cc2F)cc1 [Compound 3557] | 8.00 to 11.00 |
| COC(=O)[C@H](CCNC(=O)C(=O)Nc1ccc(Oc2cccnc2)cc1)NC(=O)c1ccc(Nc2nc(NC3(c4ccc(Cl)cc4)CC3)nc(OCC(F)(F)F)n2)cc1 [Compound 3324] | 8.00 to 11.00 |
| Cc1nccn1Cc1ccc(NC(=O)C(=O)NC[C@H](NC(=O)c2ccc(Nc3nc(NC4(c5ccc(Cl)cc5)CC4)nc(OCC(F)(F)F)n3)cc2)C(=O)O)cc1 [Compound 3287] | 8.00 to 11.00 |
| CCOC(=O)/C=C/c1cccc(NC(=O)C(=O)NCC(C)(C)CNC(=O)c2ccc(Nc3nc(NC4(c5ccc(Cl)cc5)CC4)nc(OCC(F)(F)F)n3)cc2)c1 [Compound 3407] | 8.00 to 11.00 |
| CC(CNC(=O)C(=O)Nc1ccc(F)cc1F)CNC(=O)c1ccc(Nc2nc(NC3(c4ccc(Cl)cc4)CC3)nc(OCC(F)(F)F)n2)cc1 (stereo not shown) [Compound 3473] | 8.00 to 11.00 |
| O=C(NCCCCNC(=O)c1ccc(Nc2nc(NC3(c4ccc(Cl)cc4)CC3)nc(OCC(F)(F)F)n2)cc1)C(=O)Nc1ccc(F)cc1F [Compound 3397] | 8.00 to 11.00 |
| Cc1ccc(NC(=O)C(=O)NCC(C)CNC(=O)c2ccc(Nc3nc(NC4(c5ccc(Cl)cc5)CC4)nc(OCC(F)(F)F)n3)cc2)cc1 (stereo not shown) [Compound 3353] | 8.00 to 11.00 |
| COC(=O)[C@H](CNC(=O)C(=O)Nc1ccc(-n2ccc(C(F)(F)F)n2)cc1)NC(=O)c1ccc(Nc2nc(NC3(c4ccc(Cl)cc4)CC3)nc(OCC(F)(F)F)n2)cc1 [Compound 3098] | 8.00 to 11.00 |
